Experimental data published in BindingDB's records for patent US11787766 (Shanghai Ennovabio Pharmaceuticals, 2023).

Biological target: Programmed cell death 1 ligand/protein 1 (Homo sapiens, UniProt Q9NZQ7)
Assay: Homogeneous Time-Resolved Fluorescence (HTRF)
Excerpt: PD1/PD-L1 binding assay kit (Cisbio, Cat #63ADK000CPDEC) was used, which includes two proteins, Tag 1-PD-L1 and Tag 2-PD-1, and two antibodies, Anti-Tag1-Eu3+ and Anti-Tag2-XL 665. Assay principle: Anti-tag1-Eu3+ is the HTRF donor, and Anti-Tag2-XL 665 is the HTRF acceptor. When Tag 1-PD-L1 and Tag 2-PD-1 interact, the added HTRF donor and the acceptor are close to each other. After the donor receives the excitation energy, it transfers part of the energy to the acceptor, thus producing 665 nm emission signal. When the compound is added to block the PD1/PD-L1 interaction, only 620 nm emission light was detected. The inhibitory effect of the compound was determined by analyzing the ratio of 665 nm/620 nm. Tag 1-PD-L1 was diluted with Diluent buffer (cat #62DLBDDF) to a working concentration of 10 nM, Tag 2-PD-1 was diluted with Diluent buffer to a working concentration of 500 nM, and Anti-Tag1-Eu3+ was diluted with detection buffer (cat #62DB1FDG) by 1:100, Anti-Tag2-XL 665 was diluted with detection buffer by 1:20, and the test compound was diluted with Diluent buffer to a final concentration of 2×. In a 384-well plate, 2 μL of compound was added to each well, and then 4 μL of Tag 1-PD-L1, 4 μL of Tag 2-PD-1 were added and incubated at room temperature for 15 minutes.

Programmed cell death 1 ligand/protein 1, sequence (Q9NZQ7 whole entry): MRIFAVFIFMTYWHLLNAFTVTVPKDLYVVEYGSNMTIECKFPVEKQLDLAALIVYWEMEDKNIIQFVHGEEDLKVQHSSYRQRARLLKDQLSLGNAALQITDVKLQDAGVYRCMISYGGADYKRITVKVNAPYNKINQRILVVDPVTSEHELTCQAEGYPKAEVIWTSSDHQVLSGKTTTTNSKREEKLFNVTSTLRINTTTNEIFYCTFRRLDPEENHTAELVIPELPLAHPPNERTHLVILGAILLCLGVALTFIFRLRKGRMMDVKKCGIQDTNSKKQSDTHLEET
Programmed cell death 1 ligand/protein 1, sequence (Q15116 whole entry, further chain): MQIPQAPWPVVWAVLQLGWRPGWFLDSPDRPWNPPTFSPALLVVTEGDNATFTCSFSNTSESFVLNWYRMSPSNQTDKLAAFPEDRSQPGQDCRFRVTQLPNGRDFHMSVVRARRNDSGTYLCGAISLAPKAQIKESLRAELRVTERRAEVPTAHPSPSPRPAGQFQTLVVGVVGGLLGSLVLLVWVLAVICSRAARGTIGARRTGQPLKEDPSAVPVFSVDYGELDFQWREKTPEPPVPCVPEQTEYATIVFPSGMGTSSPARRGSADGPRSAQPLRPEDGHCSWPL

Structure (SMILES) | IC50 [nM]
COc1nc(OCc2cccc(-c3cccc(CO)c3C)c2C)ccc1CNCCNC(C)=O [US11787766, Compound 2] | > 1000
COc1nc(OCc2cccc(-c3cccc(CO)c3C)c2C)ccc1CN [US11787766, Compound 3] | > 1000
COc1nc(OCc2cccc(-c3cccc(COc4ccc(C#N)c(OC)n4)c3C)c2C)ccc1C#N [US11787766, Compound 5] | > 1000
COc1cc(OCc2cccc(-c3cccc(CO)c3C)c2C)cc(OC)c1CN [US11787766, Compound 11] | > 1000
COc1nc(OCc2cccc(-c3cccc(CN)c3C)c2)ccc1CN [US11787766, Compound 16] | > 1000
COc1nc(OCc2cccc(-c3cccc(COc4ccc(CNCCNC(C)=O)c(OC)n4)c3C)c2C)ccc1C#N [US11787766, Compound 17] | > 1000
COc1nc(OCc2cccc(-c3cccc(COc4ccc(CNCCNC(C)=O)c(OC)n4)c3Cl)c2C)ccc1CNCCNC(C)=O [US11787766, Compound 30] | < 10
COc1nc(OCc2cccc(-c3cccc(COc4ccc(CN5C[C@H](O)C[C@H]5CO)c(OC)n4)c3Cl)c2Cl)ccc1CN1C[C@H](O)C[C@H]1CO [US11787766, Compound 69] | < 10
